Source: patent publication US20160095843A1, “PYRAZOLOPYRROLIDINE DERIVATIVES AND THEIR USE IN THE TREATMENT OF DISEASE” (NOVARTIS AG, priority 2013, published 2016)
Like-named read-outs stand apart in the source and are kept apart here.

How the values were obtained:
[1] = target: T1, CREBBP (Homo sapiens, UniProt Q92793); test: AlphaScreen in-vitro binding assay for CREBBP; details: Biochemical IC50 values, His-CREBBP(1081-1197)
T1 construct: 324 nM His-CREBBP(1081-1197) (custom production at Viva Biotech Ltd.)
Protocol: AlphaScreen In-Vitro Binding Assay for CREBBP
In order to assess bromodomain selectivity, we set up a binding assay using the bromodomain encoded by the CREBBP gene. […] Reactions were incubated at 30° C. for 35 minutes. Subsequently 4.5 μL per well detection mix (50 mM HEPES, pH 7.5, 0.005% Tween20, 0.02% BSA, 150 mM NaCl, 45 μg/ml Ni-chelate acceptor beads, 45 μg/mL streptavidin-donor beads) (Perkin Elmer)) were added. After 60 minutes incubation at room temperature, plates were measured in a Perkin Elmer EnVision multilabel reader. IC50 values were determined from percent inhibition values at different compound concentrations by non-linear regression analysis.
(§1) Preparation of Compound Dilutions
Test compounds were dissolved in DMSO (10 mM) and transferred into 1.4 mL flat bottom or V-shaped Matrix tubes carrying a unique 2D matrix. The stock solutions were stored at […] if not used immediately. For the test procedure the vials were defrosted and identified by a scanner whereby a working sheet was generated that guided the subsequent working steps. Compound dilutions were made in 96 well plates. This format enabled the assay of maximally 40 individual test compounds at 8 concentrations (single points) including 4 reference compounds, if desired (known BET inhibitors from the prior art, for this and other assays of the type disclosed herein). […]

[2] = target: T2, BRD3 (Homo sapiens, UniProt Q15059); test: TR-FRET in-vitro binding assay for BRD3; details: Biochemical IC50 values, His-Brd3(20-477)
T2 construct: 45 nM His-Brd3(20-477) or 45 nM His-Brd4(44-477)
Protocol: (§2) TR-FRET In-Vitro Binding Assays for BRD2, BRD3, and BRD4:
(§3) All assays were performed in 384-well microtiter plates. Each assay plate contained 8-point serial dilutions for 40 test compounds, plus 16 high- and 16 low controls. Liquid handling and incubation steps were done on an Innovadyne Nanodrop Express equipped with a robotic arm (Thermo CatX, Perkin Elmer/Caliper Twister II) and an incubator (Liconic STX40, Thermo Cytomat 2C450). The assay plates were prepared by addition of 50n1 per well of compound solution in 90% DMSO HummingBird nanodispenser (Zinsser Analytic). […] Reactions were incubated at 30° C. for 35 minutes. […] After 35 minutes incubation at 30° C., plates were measured in a Perkin Elmer EnVision multilabel reader.
as §1
(§4) Test compounds were dissolved in DMSO (10 mM) and transferred into 1.4 mL flat bottom or V-shaped Matrix tubes carrying a unique 2D matrix. The stock solutions were stored at […] if not used immediately. For the test procedure the vials were defrosted and identified by a scanner whereby a working sheet was generated that guided the subsequent working steps. Compound dilutions were made in 96 well plates. This format enabled the assay of maximally 40 individual test compounds at 8 concentrations (single points) including 4 reference compounds, if desired (known BET inhibitors from the prior art, for this and other assays of the type disclosed herein). The dilution protocol included the production of “pre-dilution plates”, “master plates” and “assay plates”.
(§5) Polypropylene 96-well plates were used as pre-dilution plates. […] All dilution steps were done on a HamiltonSTAR robot.
(§6) These plates were used directly for the assay which was performed in a total volume of 13.55 μL.

[3] = target: T3, BRD2 (Homo sapiens, UniProt P25440); test: TR-FRET in-vitro binding assay for BRD2; details: Biochemical IC50 values, His-Brd2(60-472)
T3 construct: 45 nM His-Brd2(60-472) or 45 nM His-Brd3(20-477)
Protocol: as §2, §3, §1, §4, §5, §6

[4] = system: MV-4-11 cells; test: Cell growth inhibition assay (CellTiter-Glo), MV-4-11; assay type: cell-based; details: Homo sapiens, MV4-11
In short: (§7)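 Leukemia lines grown in their own media were exposed for 4 days at 37° C. to 3-fold serial dilutions from 10 μM (0.1% DMSO). Viability by CellTiter-Glo ATP luminescence, corrected for background and day-0 plate; IC50 and TGI from four-parameter fit against vehicle (100%) and medium (−100%).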

[5] = target: T4, nuclear BRD4-NUT foci in HCC2494 NUT midline carcinoma cells (Homo sapiens, UniProt O60885+Q86Y26); test: Nut-foci formation assay; assay type: cell-based; details: 24 hours, NUT-foci per nucleus, read-out: HCS Brd4-NUT IC50
T4 construct: HCC2494 NUT midline carcinoma cells (expressing BRD4-NUT-fusion)
Protocol: HCC2494 NUT midline carcinoma cells (expressing BRD4-NUT-fusion) were obtained from the University of Texas Southwestern and cultured in RPMI-1640 medium containing 10% Foetal Calf Serum at 37° C. in a humidified 5% CO2 incubator.
Compound-mediated inhibition of BRD4 activity was monitored by quantification of the number and intensity of nuclear BRD4-NUT foci using automated immunofluorescence microscopy. Briefly, 5000 cells in 20 μL fresh medium were seeded into Poly-D-Lysine-precoated 384-well plates and incubated overnight at 37° C. and 5% CO2, followed by addition of 5 μl medium containing compound dilutions at 5-fold their final intended concentration. Dose-response effects were assessed by 3-fold serial dilutions of the test compound, starting at 10 μM. […] Assay plates were imaged using the appropriate filter sets on the Cellomics VTi automated fluorescence microscopy platform (ThermoFisher Scientific) and the population average of the number of NUT-foci per nucleus is quantified using the Cellomics Spot Detection BioApplication image analysis algorithm (ThermoFisher Scientific). The effect of a particular test compound concentration on NUT-foci number and intensity is expressed as percentage of the value obtained for cells treated with vehicle only (DMSO, 0.1% final concentration), which was set as 100. […]

[6] = system: K-562 cells; test: Cell growth inhibition assay (CellTiter-Glo), K-562; assay type: cell-based, human
In short: as §7

[7] = system: THP-1 cells; test: Cell growth inhibition assay (CellTiter-Glo), THP-1; assay type: cell-based; details: Homo sapiens
In short: as §7

[8] = target: T5, BRD4 (Homo sapiens, UniProt O60885); test: TR-FRET in-vitro binding assay for BRD4; details: Biochemical IC50 values, His-Brd4(44-477)
T5 construct: 45 nM His-Brd4(44-477) all proteins produced in-house
Protocol: as §2, §3, §1, §4, §5, §6

T3 sequence (P25440 60-472): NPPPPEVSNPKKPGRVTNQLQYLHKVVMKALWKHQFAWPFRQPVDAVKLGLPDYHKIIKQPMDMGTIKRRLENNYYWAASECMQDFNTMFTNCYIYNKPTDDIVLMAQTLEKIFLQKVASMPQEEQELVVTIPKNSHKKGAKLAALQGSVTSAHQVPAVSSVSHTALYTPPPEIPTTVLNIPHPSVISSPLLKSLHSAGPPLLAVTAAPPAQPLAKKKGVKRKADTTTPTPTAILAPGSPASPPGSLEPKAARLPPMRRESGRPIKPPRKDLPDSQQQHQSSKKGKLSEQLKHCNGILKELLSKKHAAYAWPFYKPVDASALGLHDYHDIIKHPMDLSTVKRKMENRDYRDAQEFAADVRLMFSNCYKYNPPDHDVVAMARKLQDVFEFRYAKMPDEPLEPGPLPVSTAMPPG
T2 sequence (Q15059 20-477): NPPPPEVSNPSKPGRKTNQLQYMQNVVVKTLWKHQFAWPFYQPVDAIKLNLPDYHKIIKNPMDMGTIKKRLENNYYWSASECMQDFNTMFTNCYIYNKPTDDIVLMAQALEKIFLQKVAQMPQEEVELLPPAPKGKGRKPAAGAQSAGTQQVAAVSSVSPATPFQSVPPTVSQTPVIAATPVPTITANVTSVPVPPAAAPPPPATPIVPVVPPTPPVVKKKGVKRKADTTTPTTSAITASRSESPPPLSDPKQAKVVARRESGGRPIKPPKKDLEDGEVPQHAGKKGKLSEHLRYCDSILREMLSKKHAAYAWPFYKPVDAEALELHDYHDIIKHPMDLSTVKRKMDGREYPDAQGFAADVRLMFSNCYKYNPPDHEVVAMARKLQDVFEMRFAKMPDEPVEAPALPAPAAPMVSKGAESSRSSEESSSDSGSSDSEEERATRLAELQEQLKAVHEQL
T1 sequence (Q92793 1081-1197): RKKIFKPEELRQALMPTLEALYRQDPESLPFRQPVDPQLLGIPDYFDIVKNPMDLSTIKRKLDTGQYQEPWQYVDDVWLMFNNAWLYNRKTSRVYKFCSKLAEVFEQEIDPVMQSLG

IC50 [2] | IC50 [3] | GI50 [4] | GI50 ([6]; Homo sapiens, K562) | GI50 [7] | IC50 [8] | SMILES | further results
0.074 µM | 0.099 µM |  |  |  |  | Cc1nn(C2CC2)c2c1C(c1ccc(Cl)cc1)N(c1cc(C)c(=O)n(C)c1)C2=O (racemic) [Example 23, 4-(4-chlorophenyl)-1-cyclopropyl-5-(1,5-dimethyl-6-oxo-1,6-dihydropyridin-3-yl)-3-methyl-4,5-dihydropyrrolo-[3,4-c]pyrazol-6(1H)-one] | IC50 [1]: 3.9 µM
 | > 6.7 µM |  |  |  | > 6.7 µM | Cc1cc(N2C(=O)c3nn(C)cc3[C@@H]2c2ccc(Cl)cc2)cn(C)c1=O [Example 15, (S)-4-(4-chlorophenyl)-5-(1,5-dimethyl-6-oxo-1,6-dihydropyridin-3-yl)-2-methyl-4,5-dihydropyrrolo[3,4-c]pyrazol-6(2H)-one] | 
> 6.7 µM |  |  |  |  | > 6.7 µM | Cc1cc(N2C(=O)c3nn(C4CC4)c(C)c3[C@@H]2c2ccc(Cl)cc2)cn(C)c1=O [Example 22, (S)-4-(4-chlorophenyl)-2-cyclopropyl-5-(1,5-dimethyl-6-oxo-1,6-dihydropyridin-3-yl)-3-methyl-4,5-dihydropyrrolo[3,4-c]pyrazol-6(2H)-one] | 
> 6.7 µM |  |  |  |  | > 6.7 µM | Cc1nn(C2CC2)c2c1[C@H](c1ccc(Cl)cc1)N(c1cc(Cl)c(=O)n(C)c1)C2=O [Example 50, (S)-5-(5-chloro-1-methyl-6-oxo-1,6-dihydropyridin-3-yl)-4-(4-chlorophenyl)-1-cyclopropyl-3-methyl-4,5-dihydropyrrolo[3,4-c]pyrazol-6(1H)-one] | 

Continued, compound first:

SMILES | IC50 [2] | IC50 [3] | GI50 [4] | GI50 ([6]; Homo sapiens, K562) | GI50 [7] | IC50 [8] | further results
CNc1cc(N2C(=O)c3c(c(C)nn3C3CC3)C2c2ccc(Cl)cc2)nn2c(C)nnc12 (racemic) [Example 113, 4-(4-chlorophenyl)-1-cyclopropyl-3-methyl-5-(3-methyl-8-(methylamino)-[1,2,4]triazolo[4,3-b]pyridazin-6-yl)-4,5-dihydropyrrolo-[3,4-c]pyrazol-6(1H)-one] |  |  | 84 nM | 0.511 µM | 112 nM |  | IC (TGI) [4]: 0.127 µM; IC50 [5]: 151 nM; IC (TGI) ([6]; Homo sapiens, K562): > 10 µM; IC (TGI) [7]: 0.234 µM
COc1ncc(-n2nc3c(c2C(C)C)[C@H](c2ccc(Cl)cc2)N(c2cc(C)c4onc(C)c4c2)C3=O)c(OC)n1 [Example 61, (S)-4-(4-chlorophenyl)-2-(2,4-dimethoxypyrimidin-5-yl)-5-(3,7-dimethylbenzo[d]isoxazol-5-yl)-3-isopropyl-4,5-dihydropyrrolo-[3,4-c]pyrazol-6(2H)-one] |  | > 37 µM | 948 nM | > 10 µM | 2430 nM |  | 
Cc1nn(C2CC2)c2c1[C@H](c1ccc(Cl)cc1)N(c1cc(C)c3nnc(C)n3c1)C2=O [Example 118, (S)-4-(4-chlorophenyl)-1-cyclopropyl-5-(3,8-dimethyl-[1,2,4]triazolo[4,3-a]pyridin-6-yl)-3-methyl-4,5-dihydropyrrolo-[3,4-c]pyrazol-6(1H)-one] | > 37 µM |  | 1640 nM | > 10 µM | 3160 nM |  | IC50 [1]: > 37 µM; IC (TGI) [6]: >10 µM
